Key:
[1] = Fluid (supercritical or subcritical phases), isochoric method
[2] = molar heat capacity at constant volume; settings: Fluid (supercritical or subcritical phases), Vacuum adiabatic calorimetry
[3] = xn = mol fraction of the nth substance listed; settings: Fluid (supercritical or subcritical phases), isochoric method, x1 = 0.489
[4] = molar heat capacity at constant volume; xn = mol fraction of the nth substance listed; settings: Fluid (supercritical or subcritical phases), Vacuum adiabatic calorimetry, x1 = 0.489

F/C=C/C(F)(F)F [trans-1,3,3,3-tetrafluoropropene]
Settings	mass density, [1] [kg/m3]	molar heat capacity at constant volume, [2] [J/K/mol]
270.15 K, 5540 kPa	1266.6	107.31
275.15 K, 7679 kPa	1266.2	107.2
280.15 K, 9813 kPa	1265.7	108
285.15 K, 11937 kPa	1265.3	107.88
290.15 K, 14055 kPa	1264.9	107.43
295.15 K, 2684 kPa	1185	110.39
295.15 K, 16163 kPa	1264.4	107.2
300.15 K, 4324 kPa	1184.7	111.19
305.15 K, 5963 kPa	1184.3	111.42
310.15 K, 7598 kPa	1184	112.22
315.15 K, 9231 kPa	1183.6	111.99
320.15 K, 10858 kPa	1183.3	112.9
325.15 K, 12483 kPa	1182.9	112.45
330.15 K, 14103 kPa	1182.5	113.13
335.15 K, 3368 kPa	1048.2	122.82
335.15 K, 15720 kPa	1182.2	111.99
340.15 K, 4423 kPa	1047.9	121.57
345.15 K, 5477 kPa	1047.7	121.91
350.15 K, 6529 kPa	1047.4	121
355.15 K, 7582 kPa	1047.1	119.97
360.15 K, 8633 kPa	1046.9	118.83
365.15 K, 9684 kPa	1046.6	118.49
370.15 K, 10734 kPa	1046.3	118.95
375.15 K, 11784 kPa	1046.1	119.06
380.15 K, 12833 kPa	1045.8	120.88
385.15 K, 4344 kPa	717.5	195.81
385.15 K, 13882 kPa	1045.6	121
390.15 K, 4695 kPa	717.4	192.84
390.15 K, 14930 kPa	1045.3	120.43
395.15 K, 5051 kPa	717.3	190.11
395.15 K, 15976 kPa	1045	122.14
400.15 K, 5410 kPa	717.1	185.43
405.15 K, 5772 kPa	717	181.21
410.15 K, 6137 kPa	716.9	176.31
415.15 K, 6503 kPa	716.8	174.37
420.15 K, 6872 kPa	716.7	171.18
425.15 K, 7243 kPa	716.6	167.53

F/C=C/C(F)(F)F [trans-1,3,3,3-tetrafluoropropene] + O=C=O
Settings	mass density, [3] [kg/m3]	molar heat capacity at constant volume, [4] [J/K/mol]
270.15 K, 10302 kPa	1191.8	74.42
275.15 K, 14848 kPa	1191	74.81
280.15 K, 19370 kPa	1190.1	75.36
285.15 K, 23857 kPa	1189.2	75.44
286.15 K, 24752 kPa	1189	77.71
290.15 K, 7501 kPa	1115.7	76.77
290.15 K, 28318 kPa	1188.3	75.75
295.15 K, 11107 kPa	1115	77.86
300.15 K, 14713 kPa	1114.2	78.41
301.15 K, 15434 kPa	1114.1	78.57
302.15 K, 16154 kPa	1114	78.33
303.15 K, 16872 kPa	1113.8	77.63
306.15 K, 19026 kPa	1113.3	76.61
310.15 K, 21888 kPa	1112.7	79.59
315.15 K, 25455 kPa	1112	79.12
320.15 K, 9139 kPa	1003.8	75.59
320.15 K, 28987 kPa	1111.2	78.18
325.15 K, 11633 kPa	1003.2	76.38
330.15 K, 14125 kPa	1002.7	75.99
335.15 K, 16616 kPa	1002.1	74.81
340.15 K, 19103 kPa	1001.6	74.81
345.15 K, 21584 kPa	1001	76.85
350.15 K, 24061 kPa	1000.4	76.46
355.15 K, 26532 kPa	999.9	76.53
360.15 K, 28998 kPa	999.3	78.8
361.15 K, 7303 kPa	648.9	98.76
365.15 K, 7938 kPa	648.7	97.58
370.15 K, 8742 kPa	648.5	100.71
375.15 K, 9557 kPa	648.3	103.3
380.15 K, 10380 kPa	648.1	104.86
385.15 K, 11211 kPa	647.9	104.47
390.15 K, 12047 kPa	647.6	106.11
395.15 K, 12887 kPa	647.4	107.91
400.15 K, 13731 kPa	647.2	103.92
405.15 K, 14576 kPa	647	102.28
410.15 K, 15424 kPa	646.8	97.11
415.15 K, 16273 kPa	646.6	93.67
420.15 K, 17122 kPa	646.3	92.5
425.15 K, 17972 kPa	646.1	91.79

Source: the NIST ThermoML archive (doi:10.1021/je101209e)
